Data on 1 substance can be found in patent US20210371817A1, “COMPOSITIONS AND METHODS FOR PRECISE PATTERNING OF POSTERIOR NEUROECTODERM FROM HUMAN PLURIPOTENT STEM CELLS” (WISCONSIN ALUMNI RESEARCH FOUNDATION, priority 2013, published 2021).

One assay deals with H9 hESCs. Description: HOX, OTX2 and T gene expression by RT-PCR/qPCR during hESC differentiation with morphogens. Format: cell-based, human. The following applies: neuromesodermal state. The method, then:
hPSC differentiation. hPSCs were washed once with phosphate-buffered saline (PBS; Invitrogen), dissociated with ACCUTASE® (Invitrogen) for 3 min, and collected by centrifugation. hPSCs were then seeded onto VTN-NC-coated plates in E8 medium containing 10 μM ROCK inhibitor (Y27632; R&D Systems). Seeding density was 2×10^5 cells/cm^2. The following day, the cells were switched to E6 medium (same composition as E8 medium minus FGF2 and TGFβ 1). Morphogen treatments were then carried out according to the figures in the text. Cells were supplemented with FGF8b (100-200 ng/ml; Peprotech), CHIR99021 (3-6 μM; Tocris), and/or RA (3 μM; Sigma).
Reverse transcriptase polymerase chain reaction (RT-PCR). Total RNA was extracted from cells using TRIZOL® reagent (Invitrogen) according to the manufacturer's instructions. RNA was then subjected to reverse-transcription using a Thermoscript™ RT-PCR kit (Invitrogen) in a 20 μL mixture according to the manufacturer's instructions. The resulting cDNA was then amplified in a 25 μL mixture containing 10×PCR buffer, 0.2 mM dNTP, 1.5 mM MgCl2, 0.5 μM of each primer, and 1 U Taq DNA polymerase (Invitrogen). Amplified products were resolved on 2% agarose gels containing SYBR Safe (Invitrogen) and visualized with a VersaDoc (BioRad). Primer sequences can be found in Table 3. All amplifications were carried out for 35 cycles. HOXC5 and HOXC6 were amplified at 58° C., all others with an annealing temperature of 55° C.
Propagation and differentiation of neuromesodermal progenitors. H9 hESCs (passage 25-45), H9 ishcat2 hESCs (passage 33-43), and IMR90-4 iPSCs (passage 31-40) were maintained in E8 medium on MATRIGEL© (BD Biosciences) as previously described. To initiate differentiation, hPSCs were passaged with ACCUTASE© (Life Technologies) onto vitronectin (VTN-NC)-coated plates at a density of 1×10^5 cells/cm^2 as previously described. The following day, cells were changed to E6 medium. 24 h later, cells were changed to E6 medium containing 200 ng/ml FGF8b (Peprotech). 24 h later, cells were washed once with 2 ml PBS, treated with ACCUTASE® for 2 min, and removed from the surface by gentle pipetting. After collection by centrifugation, cells were gently resuspended in E6 medium containing 200 ng/ml FGF8b and CHIR99021 (CHIR, concentration varied depending on cell line; Tocris) and re-seeded on VTN-NC-coated plates at a density of 1.5×10^5 cells/cm^2. Medium was not changed until 48 h after passaging. This passaging process was repeated on day 3 of CHIR 99021 treatment (re-seed density of 1.2×10^5 cells/cm^2) if extended neuromesodermal propagation was required, and 50 ng/ml GDF11 (Peprotech) was added on day 4 of CHIR 99021 treatment to initiate lumbar patterning. Cells were changed to E6 medium containing 1 μM retinoic acid (RA; Sigma) to facilitate neural transition.
qPCR. Total RNA was extracted from cultured cells using TRIZOL® (Life Technologies) according to the manufacturer's instructions. After isolation, 2-5 μg of total RNA was immediately subjected to reverse transcription using the Thermoscript™ RT-PCR kit (Life Technologies) in a 20 μL reaction according to the manufacturer's instructions. […] For all experiments, ΔΔCt values for each gene were calculated relative to ribosomal protein S18 (RPS18) RNA levels and converted to fold difference assuming 100% primer efficiency, then normalized to maximum expression levels as indicated in each figure legend. […]
(In general: Quantitative PCR measures a nucleic acid by following its amplification.)

Another assay has as its system neuromesodermal cells. Description: Pax6 and HoxD10 expression after GDF11 with or without dorsomorphin, then RA. Type of assay: cell-based, human. Conditions: GDF11 present in the neuromesodermal morphogen cocktail. An excerpt:
(FIG. 7A) Timeline of differentiation. (FIG. 7B) qPCR assessment of lumbar/sacral gene expression at day 12. A minimum concentration of GDF11 is required to activate HoxD10 and HoxA11. Each gene is normalized to the maximum GDF11 dose. Error bars are standard deviation calculated from duplicate reactions. (FIG. 7C) Expression of Pax6 in response to increased GDF11 concentrations. Data were collected by flow cytometry and represented as mean±standard deviation calculated from two biological replicates. Sox2 was uniformly expressed regardless of GDF11 treatment (data not shown). […] Grey histograms, IgG control; Red histograms, Pax6. Data are representative of two biological replicates. […] Percentages were quantified as HoxD10 labeling relative to DAPI-stained nuclei (>2500 total cells counted per sample). Scale bars, 100 μm
After neural tube closure in vivo, opposing gradients of TGFβ and SHH signaling produce distinct dorsal and ventral domains from which sensory neurons, interneurons, and motor neurons arise. Pax6, which has been identified as a neuroectoderm fate determinant, is expressed throughout most of the neural tube but is absent from the most dorsal and ventral domains. […] The ability of GDF11 to control rostral/caudal patterning is mediated by signaling via ALK5 and activation of the SMAD2/3 complex. […]

Take “GDF11: Growth differentiation factor 11, a TGFβ family member”: the “Expression of hindbrain/cervical genes HOXA4, HOXB4, HOXC6” value with H9 hESCs (data not shown) was “did not repress”. In the assay on H9 hESCs (qPCR, GDF11 50 ng/ml), the “Activation of lumbar and sacral HOX paralogs” value was “necessary for robust activation of lumbar (HOX10) and sacral (HOX11) paralogs”. Also, the “Pax6 expression after RA” value in the assay with neuromesodermal cells is “decreased”.
